Results from publication PMC3361763 (2011).

Experiments:
CDK6 = CDK6 (Homo sapiens, UniProt Q00534); experiment: radiometric kinase assay; type: biochemical
CDK4 = CDK4 (Homo sapiens, UniProt P11802); experiment: radiometric kinase assay; type: biochemical
Sequence of CDK4 (P11802 2-303): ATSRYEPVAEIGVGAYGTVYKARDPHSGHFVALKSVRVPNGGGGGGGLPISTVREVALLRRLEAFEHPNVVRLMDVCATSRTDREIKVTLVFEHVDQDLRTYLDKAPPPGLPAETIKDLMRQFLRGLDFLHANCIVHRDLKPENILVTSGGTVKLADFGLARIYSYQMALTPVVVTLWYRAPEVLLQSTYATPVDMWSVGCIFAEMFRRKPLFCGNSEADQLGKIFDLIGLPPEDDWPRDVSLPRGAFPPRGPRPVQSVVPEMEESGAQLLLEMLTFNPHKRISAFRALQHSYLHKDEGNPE

Sequence of CDK6 (Q00534 whole entry): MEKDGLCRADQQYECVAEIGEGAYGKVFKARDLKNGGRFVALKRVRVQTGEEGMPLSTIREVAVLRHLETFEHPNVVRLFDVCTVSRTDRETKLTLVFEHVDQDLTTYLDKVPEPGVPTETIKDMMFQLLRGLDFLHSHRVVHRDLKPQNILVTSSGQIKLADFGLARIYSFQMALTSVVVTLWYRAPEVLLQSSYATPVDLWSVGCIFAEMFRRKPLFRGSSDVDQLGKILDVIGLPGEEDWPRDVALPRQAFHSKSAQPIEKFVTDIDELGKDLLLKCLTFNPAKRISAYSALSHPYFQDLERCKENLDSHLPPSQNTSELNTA

IC50 (CDK6): 75 µM
radiometric kinase assay (GST-Rb substrate) on CDK4 immunoprecipitated from HCT1 (CDK4): ~ 75 μM
SMILES: O=C(O)CN(CC(=O)O)Cc1cc2c(cc1O)Oc1cc(O)c(CN(CC(=O)O)CC(=O)O)cc1C21OC(=O)c2ccccc21 [calcein, 4′5′-bis(N, N-bis(carboxymethyl)aminomethyl) fluorescein]
